Results published in the supplement of paper PMC10307832.

Tests used:
Experiment in all cases: relative viability (nuclei count vs DMSO), 5 days (fraction); higher = more cells survive
Pictilisib + Foretinib = compound: CS(=O)(=O)N1CCN(Cc2cc3nc(-c4cccc5[nH]ncc45)nc(N4CCOCC4)c3s2)CC1 [Pictilisib] + COc1cc2c(Oc3ccc(NC(=O)C4(C(=O)Nc5ccc(F)cc5)CC4)cc3F)ccnc2cc1OCCCN1CCOCC1 [Foretinib] (partner 0.25 µM)
In short: (§1)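 Lung cancer cell lines were pin-tool dosed in 1536-well plates on the day after seeding, with either a lone drug or a fixed anchor-drug dose plus five library-drug doses (not always all listed) in √10 steps. Nuclei were counted on 4× images after 5 days. Relative viability is the ratio of treated-well to vehicle-well nuclei counts, with each value a median of duplicate plates.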

Pictilisib + Linsitinib = compound: CS(=O)(=O)N1CCN(Cc2cc3nc(-c4cccc5[nH]ncc45)nc(N4CCOCC4)c3s2)CC1 [Pictilisib] + C[C@]1(O)C[C@@H](c2nc(-c3ccc4ccc(-c5ccccc5)nc4c3)c3c(N)nccn32)C1 [Linsitinib] (partner 1 µM)
In short: as §1

MK-2206 + Pictilisib = compound: NC1(c2ccc(-c3nc4ccn5c(=O)[nH]nc5c4cc3-c3ccccc3)cc2)CCC1 [MK-2206] + CS(=O)(=O)N1CCN(Cc2cc3nc(-c4cccc5[nH]ncc45)nc(N4CCOCC4)c3s2)CC1 [Pictilisib] (partner 1 µM)
In short: as §1

MK-2206 + Dasatinib = compound: NC1(c2ccc(-c3nc4ccn5c(=O)[nH]nc5c4cc3-c3ccccc3)cc2)CCC1 [MK-2206] + Cc1nc(Nc2ncc(C(=O)Nc3c(C)cccc3Cl)s2)cc(N2CCN(CCO)CC2)n1 [Dasatinib] (partner 0.075 µM)
In short: as §1

MK-2206 + Phenformin = compound: NC1(c2ccc(-c3nc4ccn5c(=O)[nH]nc5c4cc3-c3ccccc3)cc2)CCC1 [MK-2206] + N=C(N)NC(=N)NCCc1ccccc1 [Phenformin] (partner 250 µM)
In short: as §1

Row | Cell Line | relative viability (Pictilisib + Foretinib; first compound 0.02 µM) | relative viability (Pictilisib + Foretinib; first compound 0.06325 µM) | relative viability (Pictilisib + Foretinib; first compound 0.6325 µM) | relative viability (Pictilisib + Foretinib; first compound 2 µM) | relative viability (Pictilisib + Linsitinib; first compound 0.02 µM) | relative viability (Pictilisib + Linsitinib; first compound 0.06325 µM) | relative viability (Pictilisib + Linsitinib; first compound 0.6325 µM) | relative viability (Pictilisib + Linsitinib; first compound 2 µM) | relative viability (MK-2206 + Pictilisib; first compound 0.01 µM) | relative viability (MK-2206 + Pictilisib; first compound 0.03162 µM) | relative viability (MK-2206 + Pictilisib; first compound 0.3162 µM) | relative viability (MK-2206 + Pictilisib; first compound 1 µM) | relative viability (MK-2206 + Dasatinib; first compound 0.01 µM) | relative viability (MK-2206 + Dasatinib; first compound 0.03162 µM) | relative viability (MK-2206 + Dasatinib; first compound 0.3162 µM) | relative viability (MK-2206 + Dasatinib; first compound 1 µM) | relative viability (MK-2206 + Phenformin; first compound 0.01 µM) | relative viability (MK-2206 + Phenformin; first compound 0.03162 µM) | relative viability (MK-2206 + Phenformin; first compound 0.3162 µM) | relative viability (MK-2206 + Phenformin; first compound 1 µM)
1 | NCI-H2126 | 1.23 | 1.14 | 0.931 | 0.423 | 0.692 | 0.692 | 0.609 | 0.5 | 0.522 | 0.47 | 0.491 | 0.468 | 0.686 | 0.625 | 0.5 | 0.476 | 0.515 | 0.501 | 0.446 | 0.426
2 | HCC-366 | 0.978 | 0.936 | 0.68 | 0.329 | 0.776 | 0.448 | 0.256 | 0.0873 | 0.19 | 0.124 | 0.126 | 0.12 | 0.696 | 0.68 | 0.434 | 0.222 | 0.614 | 0.686 | 0.564 | 0.39
3 | LU99A | 1.04 | 0.866 | 0.674 | 0.464 | 0.576 | 0.468 | 0.326 | 0.244 | 0.327 | 0.314 | 0.261 | 0.289 | 0.524 | 0.733 | 0.48 | 0.498 | 1.01 | 0.874 | 0.803 | 0.903
4 | HOP-62 | 1.05 | 1.16 | 1.05 | 1.03 | 1.03 | 0.868 | 0.759 | 0.779 | 0.563 | 1.11 | 0.728 | 0.48 | 0.592 | 0.73 | 0.624 | 0.665 | 0.62 | 0.725 | 0.701 | 0.699
5 | HCC-15 | 1.07 | 0.966 | 0.852 | 0.659 | 0.852 | 0.928 | 0.87 | 0.762 | 0.727 | 0.785 | 0.643 | 0.626 | 0.578 | 0.643 | 0.442 | 0.422 | 0.469 | 0.519 | 0.442 | 0.288
6 | HARA | 0.828 | 0.906 | 0.851 | 0.581 | 0.979 | 1.06 | 0.803 | 0.353 | 0.388 | 0.395 | 0.399 | 0.357 | 0.321 | 0.302 | 0.329 | 0.227 | 0.432 | 0.577 | 0.386 | 0.415
7 | SK-MES-1 | 1.02 | 0.86 | 0.494 | 0.271 | 1.02 | 1.01 | 0.836 | 0.456 | 0.37 | 0.34 | 0.354 | 0.352 | 0.396 | 0.437 | 0.356 | 0.425 | 0.65 | 0.72 | 0.609 | 0.57
8 | NCI-H1355 | 0.931 | 0.868 | 0.849 | 0.398 | 0.759 | 0.678 | 0.744 | 0.402 | 0.486 | 0.475 | 0.454 | 0.4 | 0.734 | 0.7 | 0.701 | 0.432 | 0.434 | 0.476 | 0.4 | 0.317
9 | NCI-H727 | 0.76 | 0.843 | 0.672 | 0.467 | 0.267 | 0.318 | 0.228 | 0.258 | 0.47 | 0.413 | 0.36 | 0.254 | 0.408 | 0.328 | 0.394 | 0.433 | 0.607 | 0.71 | 0.533 | 0.592
10 | NCI-H520 | 0.695 | 0.694 | 0.4 | 0.244 | 0.975 | 1.09 | 0.56 | 0.208 | 0.275 | 0.228 | 0.276 | 0.223 | 0.179 | 0.178 | 0.189 | 0.18 | 0.551 | 0.523 | 0.212 | 0.254
11 | NCI-H838 | 0.973 | 0.895 | 0.929 | 0.45 | 1.05 | 0.891 | 0.891 | 0.448 | 0.517 | 0.436 | 0.464 | 0.42 | 0.282 | 0.279 | 0.288 | 0.268 | 0.554 | 0.722 | 0.517 | 0.447
12 | LK-2 | 0.999 | 0.885 | 0.812 | 0.347 | 0.609 | 0.537 | 0.526 | 0.426 | 0.684 | 0.707 | 0.583 | 0.667 | 0.231 | 0.299 | 0.327 | 0.19 | 0.302 | 0.543 | 0.315 | 0.174
13 | HCC-827 | 0.996 | 1.04 | 0.931 | 0.392 | 0.938 | 1.01 | 1.03 | 0.711 | 0.982 | 1.11 | 0.899 | 1.01 | 0.476 | 0.272 | 0.258 | 0.362 | 0.45 | 0.434 | 0.402 | 0.326
14 | SW 1573 | 0.865 | 0.805 | 0.706 | 0.501 | 0.844 | 0.709 | 0.618 | 0.41 | 0.453 | 0.548 | 0.424 | 0.457 | 0.431 | 0.554 | 0.364 | 0.419 | 0.419 | 0.457 | 0.27 | 0.237
15 | NCI-H2023 | 0.838 | 0.804 | 0.578 | 0.183 | 0.508 | 0.414 | 0.208 | 0.264 | 0.231 | 0.197 | 0.206 | 0.191 | 0.6 | 0.542 | 0.443 | 0.362 | 0.398 | 0.416 | 0.343 | 0.271
16 | EPLC-272H | 0.711 | 0.687 | 0.376 | 0.173 | 1.2 | 1.19 | 0.875 | 0.865 | 0.292 | 0.333 | – | 0.336 | 0.486 | 0.333 | 0.256 | 0.306 | 0.323 | 0.285 | 0.29 | 0.336
17 | SK-LU-1 | 0.878 | 0.892 | 0.652 | 0.422 | 1.21 | 1.13 | 0.987 | 0.628 | 0.584 | 0.478 | 0.535 | 0.474 | 0.196 | 0.19 | 0.198 | 0.151 | 0.536 | 0.602 | 0.476 | 0.503
18 | NCI-H358 | 0.749 | 0.763 | 0.548 | 0.274 | 0.681 | 0.685 | 0.464 | 0.393 | 0.378 | 0.333 | 0.355 | 0.347 | 0.169 | 0.167 | 0.15 | 0.147 | 0.338 | 0.352 | 0.328 | 0.412
19 | ABC-1 | 1.37 | 0.903 | 0.863 | 0.803 | 0.863 | 0.783 | 0.651 | 0.635 | 0.629 | 0.728 | 0.721 | 0.701 | 0.499 | 0.534 | 0.388 | 0.399 | 0.265 | 0.235 | 0.196 | 0.232
20 | NCI-H1395 | 0.966 | 1.01 | 0.962 | 0.588 | 1.15 | 1.11 | 0.836 | 0.597 | 0.653 | 0.677 | 0.462 | 0.498 | 0.435 | 0.399 | 0.413 | 0.362 | 0.508 | 0.481 | 0.4 | 0.354
21 | NCI-H2085 | 0.858 | 0.811 | 0.572 | 0.329 | 0.86 | 0.835 | 0.786 | 0.334 | 0.516 | 0.415 | 0.416 | 0.438 | 0.257 | 0.234 | 0.253 | 0.242 | 0.713 | 0.834 | 0.681 | 0.59
22 | NCI-H1563 | 0.839 | 0.935 | 0.674 | 0.532 | 1.16 | 1.1 | 0.835 | 0.6 | 0.625 | 0.665 | 0.633 | 0.626 | 0.492 | 0.449 | 0.406 | 0.407 | 0.625 | 0.601 | 0.606 | 0.616
23 | NCI-H2087 | 1 | 1.19 | 0.828 | 0.588 | 1.12 | 1.02 | 0.918 | 0.944 | 0.817 | 0.933 | 0.833 | 0.671 | 0.71 | 0.962 | 0.918 | 0.775 | 0.531 | 0.361 | 0.404 | 0.317
24 | NCI-H322M | 0.936 | 0.985 | 0.792 | 0.559 | 0.82 | 0.837 | 0.623 | 0.656 | 0.509 | 0.529 | 0.489 | 0.511 | 0.258 | 0.268 | 0.288 | 0.284 | 0.756 | 0.822 | 0.725 | 0.769
25 | NCI-H1734 | 0.918 | 0.641 | 0.579 | 0.35 | 0.901 | 0.797 | 0.615 | 0.332 | 0.475 | 0.463 | 0.329 | 0.393 | 0.501 | 0.449 | 0.408 | 0.387 | 0.355 | 0.458 | 0.304 | 0.338
26 | NCI-H2228 | 0.853 | 0.917 | 0.496 | 0.291 | 0.533 | 0.637 | 0.31 | 0.184 | 0.356 | 0.455 | 0.198 | 0.297 | 0.533 | 0.485 | 0.355 | 0.266 | 0.332 | 0.326 | 0.214 | 0.219
27 | EKVX | 0.855 | 0.88 | 0.721 | 0.438 | 1.02 | 0.948 | 0.749 | 0.429 | 0.415 | 0.447 | 0.424 | 0.445 | 0.73 | 0.522 | 0.536 | 0.569 | 0.24 | 0.245 | 0.204 | 0.256
